According to US20070123546A1, “2-amino-7,8-dihydro-6H-pyrido[4,3-d]pyrimidin-5-ones” (Chiron Corporation, priority 2005, published 2007):
pIC50: −log10 of the molar value.

target: His-tagged N-terminal ATP binding domain (amino acid residues 9-236) of HSP90α (Homo sapiens, UniProt P07900); test: HSP90 inhibitor binding potency: TRF competition binding assay; conditions: Table 1; competition with biotinylated radicicol
How it was run: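 Competition against biotinylated radicicol for binding to the His-tagged 9-236 ATP domain of HSP90α: 2 h, room temperature, HEPES/MgCl2/KCl/BSA buffer. Streptavidin capture, then europium-labeled anti-His antibody and enhancement solution; europium counts give IC50.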

| pIC50 | SMILES |
| --- | --- |
| > 5.00 | Cc1nc(N)nc2c1C(=O)NC(c1ccc(F)cc1-c1cccc(F)c1F)C2 (centres unmarked) [Compound 32] |
| > 5.00 | Cc1nc(N)nc2c1C(=O)NC(c1ccc(F)cc1-c1cnccc1Cl)C2 (centres unmarked) [Compound 20, 2-Amino-7-[2-(4-chloro-pyridin-3-yl)-4-fluoro-phenyl]-4-methyl-7,8-dihydro-6H-pyrido[4,3-d]pyrimidin-5-one] |
| < 5.00 | Cc1nc(N)nc2c1C(=O)NC(c1ccc(F)cc1-c1cncnc1)C2 (centres unmarked) [Compound 24, 2-Amino-7-(4-fluoro-2-pyrimidin-5-yl-phenyl)-4-methyl-7,8-dihydro-6H-pyrido[4,3-d]pyrimidin-5-one] |
| > 5.00 | Cc1nc(N)nc2c1C(=O)NC(c1ccc(F)cc1-c1cccnc1Cl)C2 (centres unmarked) [Compound 16, 2-Amino-7-[2-(2-chloro-pyridin-3-yl)-4-fluoro-phenyl]-4-methyl-7,8-dihydro-6H-pyrido[4,3-d]pyrimidin-5-one] |
| > 5.00 | COc1cncc(-c2cc(F)ccc2C2Cc3nc(N)nc(C)c3C(=O)N2)c1 (centres unmarked) [Compound 36, 2-Amino-7-[4-fluoro-2-(5-methoxy-pyridin-3-yl)-phenyl]-4-methyl-7,8-dihydro-6H-pyrido[4,3-d]pyrimidin-5-one] |

same assay, conditions: Table 2; competition with biotinylated radicicol

| pIC50 | SMILES |
| --- | --- |
| > 5.00 | CCOc1cncc(-c2ccccc2[C@H]2Cc3nc(N)nc(C)c3C(=O)N2)n1 [Compound 71, (R)-2-Amino-7-[2-(6-ethoxy-pyrazin-2-yl)-phenyl]-4-methyl-7,8-dihydro-6H-pyrido[4,3-d]pyrimidin-5-one] |

same assay, conditions: Table 3; competition with biotinylated radicicol

| pIC50 | SMILES |
| --- | --- |
| > 5.00 | COc1cccc(-c2cc(F)ccc2[C@H]2Cc3nc(N)nc(C)c3C(=O)N2CC2CCOCC2)n1 [Compound 132, (R)-2-Amino-7-[4-fluoro-2-(6-methoxy-pyridin-2-yl)-phenyl]-4-methyl-6-(tetrahydro-pyran-4-ylmethyl)-7,8-dihydro-6H-pyrido[4,3-d]pyrimidin-5-one] |
| > 5.00 | COc1ccc(CN2C(=O)c3c(C)nc(N)nc3C[C@@H]2c2ccc(F)cc2-c2cncc(OC)n2)c(OC)c1 [Compound 118, (R)-2-Amino-6-(2,4-dimethoxy-benzyl)-7-[4-fluoro-2-(6-methoxy-pyrazin-2-yl)-phenyl]-4-methyl-7,8-dihydro-6H-pyrido[4,3-d]pyrimidin-5-one] |
| > 5.00 | COc1ncc(-c2cc(F)ccc2[C@H]2Cc3nc(N)nc(C)c3C(=O)N2CCC(C)C)nc1OC [Compound 147, (R)-2-Amino-7-[-(5,6-dimethoxy-pyrazin-2-yl)-4-fluoro-phenyl]-4-methyl-6-(3-methyl-butyl)-7,8-dihydro-6H-pyrido[4,3-d]pyrimidin-5-one] |
| < 5.00 | COc1ccc(-c2cc(F)ccc2C2Cc3nc(N)nc(C)c3C(=O)N2)cc1F (centres unmarked) [Compound 91, 2-Amino-7-(5,3′-difluoro-4′-methoxy-biphenyl-2-yl)-4-methyl-7,8-dihydro-6H-pyrido[4,3-d]pyrimidin-5-one] |
| > 5.00 | COc1cncc(-c2cc(F)ccc2[C@H]2Cc3nc(N)nc(C)c3C(=O)N2CC2CCOCC2)n1 [Compound 131, (R)-2-Amino-7-[4-fluoro-2-(6-methoxy-pyrazin-2-yl)-phenyl]-4-methyl-6-(tetrahydro-pyran-4-ylmethyl)-7,8-dihydro-6H-pyrido[4,3-d]pyrimidin-5-one] |

same assay, conditions: Table 4; competition with biotinylated radicicol

| pIC50 | SMILES |
| --- | --- |
| ≤ 5.00 | Cc1nc(N)nc2c1C(=O)N[C@@H](c1ccccc1Br)C2 [Compound 184, (R)-2-Amino-7-(2-bromo-phenyl)-4-methyl-7,8-dihydro-6H-pyrido[4,3-d]pyrimidin-5-one] |
| > 5.00 | COc1nc(-c2ccccc2[C@H]2Cc3nc(N)nc(C)c3C(=O)N2)ncc1F [Compound 204, (R)-2-Amino-7-[2-(5-fluoro-4-methoxy-pyrimidin-2-yl)-phenyl]-4-methyl-7,8-dihydro-6H-pyrido[4,3-d]pyrimidin-5-one] |
| > 5.00 | COc1ccc(-c2cc(F)ccc2[C@H]2Cc3nc(N)nc(C)c3C(=O)N2)s1 [Compound 209, (R)-2-Amino-7-[4-fluoro-2-(5-methoxy-thiophen-2-yl)-phenyl]-4-methyl-7,8-dihydro-6H-pyrido[4,3-d]pyrimidin-5-one] |
